{"source": "PubChem BioAssay AID2060499", "about": "(Molecular Pharmacology Branch, DTP, NCI, 2025);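 further: spheroids exposed to compounds for 7 days before readout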", "test_system": "777334-354-R2-J4-PDC tumor spheroids with HUVEC/MSC, viability", "assay": "Anticancer human tumor 777334-354-R2-J4-PDC patient-derived pancreatic adenocarcinoma cell line growth inhibition [GQUAD]", "conditions": "for IC50: curve of first compound; for viability, T/C: stronger effect = lower value", "summary_of_the_method": "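Viability of tumor cells grown as complex spheroids with endothelial and stromal cells, exposed to drug combinations. Top concentration at or near clinical Cmax (else 10 microM), diluted in half-log increments.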"}
{"smiles": "C=CCn1c(=O)c2cnc(Nc3ccc(N4CCN(C)CC4)cc3)nc2n1-c1cccc(C(C)(C)O)n1", "note": "+ Cc1cnc(CNC(=O)c2c(=O)c3ccc(N4CCCN(C)CC4)nc3n3c2sc2ccccc23)cn1", "values": [{"measurement": "IC50", "setting": "second compound 0.0316 µM", "result": 619, "unit": "nM"}, {"measurement": "IC50", "setting": "second compound 0.1 µM", "result": 299, "unit": "nM"}, {"measurement": "IC50", "setting": "second compound 0.316 µM", "result": 400, "unit": "nM"}, {"measurement": "IC50", "setting": "second compound 1 µM", "result": 360, "unit": "nM"}, {"measurement": "IC50", "setting": "second compound 3.16 µM", "result": 162, "unit": "nM"}, {"measurement": "IC50", "setting": "second compound 10 µM", "result": 68.3, "unit": "nM"}, {"measurement": "viability, T/C", "setting": "second compound 0.0316 µM, first compound 0.0316 µM", "result": 88.6, "unit": "%"}, {"measurement": "viability, T/C", "setting": "second compound 0.0316 µM, first compound 0.1 µM", "result": 75.3, "unit": "%"}, {"measurement": "viability, T/C", "setting": "second compound 0.0316 µM, first compound 0.316 µM", "result": 64.8, "unit": "%"}, {"measurement": "viability, T/C", "setting": "second compound 0.0316 µM, first compound 1 µM", "result": 37.5, "unit": "%"}, {"measurement": "viability, T/C", "setting": "second compound 0.0316 µM, first compound 3.16 µM", "result": 37.9, "unit": "%"}, {"measurement": "viability, T/C", "setting": "second compound 0.0316 µM, first compound 10 µM", "result": 38.4, "unit": "%"}, {"measurement": "viability, T/C", "setting": "second compound 0.1 µM, first compound 0.0316 µM", "result": 78.4, "unit": "%"}, {"measurement": "viability, T/C", "setting": "second compound 0.1 µM, first compound 0.1 µM", "result": 67.8, "unit": "%"}, {"measurement": "viability, T/C", "setting": "second compound 0.1 µM, first compound 0.316 µM", "result": 50.2, "unit": "%"}, {"measurement": "viability, T/C", "setting": "second compound 0.1 µM, first compound 1 µM", "result": 37, "unit": "%"}, {"measurement": "viability, T/C", "setting": "second compound 0.1 µM, first compound 3.16 µM", "result": 37, "unit": "%"}, {"measurement": "viability, T/C", "setting": "second compound 0.1 µM, first compound 10 µM", "result": 38.5, "unit": "%"}, {"measurement": "viability, T/C", "setting": "second compound 0.316 µM, first compound 0.0316 µM", "result": 73, "unit": "%"}, {"measurement": "viability, T/C", "setting": "second compound 0.316 µM, first compound 0.1 µM", "result": 72.1, "unit": "%"}, {"measurement": "viability, T/C", "setting": "second compound 0.316 µM, first compound 0.316 µM", "result": 52.6, "unit": "%"}, {"measurement": "viability, T/C", "setting": "second compound 0.316 µM, first compound 1 µM", "result": 39.8, "unit": "%"}, {"measurement": "viability, T/C", "setting": "second compound 0.316 µM, first compound 3.16 µM", "result": 39.5, "unit": "%"}, {"measurement": "viability, T/C", "setting": "second compound 0.316 µM, first compound 10 µM", "result": 40.5, "unit": "%"}, {"measurement": "viability, T/C", "setting": "second compound 1 µM, first compound 0.0316 µM", "result": 65.2, "unit": "%"}, {"measurement": "viability, T/C", "setting": "second compound 1 µM, first compound 0.1 µM", "result": 64.4, "unit": "%"}, {"measurement": "viability, T/C", "setting": "second compound 1 µM, first compound 0.316 µM", "result": 51.2, "unit": "%"}, {"measurement": "viability, T/C", "setting": "second compound 1 µM, first compound 1 µM", "result": 40.6, "unit": "%"}, {"measurement": "viability, T/C", "setting": "second compound 1 µM, first compound 3.16 µM", "result": 42.4, "unit": "%"}, {"measurement": "viability, T/C", "setting": "second compound 1 µM, first compound 10 µM", "result": 38.2, "unit": "%"}, {"measurement": "viability, T/C", "setting": "second compound 3.16 µM, first compound 0.0316 µM", "result": 62.8, "unit": "%"}, {"measurement": "viability, T/C", "setting": "second compound 3.16 µM, first compound 0.1 µM", "result": 56.3, "unit": "%"}, {"measurement": "viability, T/C", "setting": "second compound 3.16 µM, first compound 0.316 µM", "result": 44.5, "unit": "%"}, {"measurement": "viability, T/C", "setting": "second compound 3.16 µM, first compound 1 µM", "result": 37.3, "unit": "%"}, {"measurement": "viability, T/C", "setting": "second compound 3.16 µM, first compound 3.16 µM", "result": 39.1, "unit": "%"}, {"measurement": "viability, T/C", "setting": "second compound 3.16 µM, first compound 10 µM", "result": 35.1, "unit": "%"}, {"measurement": "viability, T/C", "setting": "second compound 10 µM, first compound 0.0316 µM", "result": 57.3, "unit": "%"}, {"measurement": "viability, T/C", "setting": "second compound 10 µM, first compound 0.1 µM", "result": 46.8, "unit": "%"}, {"measurement": "viability, T/C", "setting": "second compound 10 µM, first compound 0.316 µM", "result": 38.6, "unit": "%"}, {"measurement": "viability, T/C", "setting": "second compound 10 µM, first compound 1 µM", "result": 32.6, "unit": "%"}, {"measurement": "viability, T/C", "setting": "second compound 10 µM, first compound 3.16 µM", "result": 36.7, "unit": "%"}, {"measurement": "viability, T/C", "setting": "second compound 10 µM, first compound 10 µM", "result": 27.8, "unit": "%"}]}
